Assay results published in patent US20240307409A1, “ARGININE METHYLTRANSFERASE INHIBITOR AND USE THEREOF” (Cytosinlab Therapeutics Co., Ltd., priority 2021, published 2024).

Tested on: Toledo cells
Assay: Toledo cell proliferation inhibition assay
Assay type: cell-based
Conditions: Homo sapiens, Toledo, 144 h; six-day assay, CellTiter-Glo
In short: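 Toledo cells seeded at 2000 cells/well in RPMI 1640 + 10% FBS and incubated with compound for six days at 37° C, 5% CO2. Viability was then read by CellTiter-Glo luminescence after 30 min orbital mixing.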

SMILES	IC50 [nM]
CCOCC1(COCC)CCC(c2cccnc2CN(C)CCNC)CC1 [P207]	< 1000
CNCCN(C)Cc1ccccc1C1CCN(c2ccccc2)CC1 [P023]	< 1000
CNCCN(C)Cc1ncccc1N1CCc2ccccc2CC1 [P118]	< 1000
